In US5861413A, “2-oxo- and 2-thio-1,2-dihydroquinolinyl-oxazolidinones” (Bayer Aktiengesellschaft, priority 1996, dated 1999):
Values after ≈ are worked out from the molar mass of the structure shown. Read-outs that look alike come from different tables or passages of the source.

What was measured:
Assay type in all cases: cell-based
Staph. 133 = assay: MIC by serial dilution on Iso-Sensitest agar, Staph. 133; settings: 37° C., about 20 hours, about 10^4 colony-forming particles
Method: (§1) The minimum inhibitory concentrations (MIC) there determined by the serial dilution method on Iso-Sensitest agar (Oxoid). For each test substance, a number of agar plates were prepared which, at twice the dilution in each case, contained falling concentrations of the active compound. The agar plates were inoculated using a multipoint inoculator (Denley). For inoculation, overnight cultures of the pathogenic organisms were used which had previously been diluted such that each inoculation point contained about 10^4 colony-forming particles. The inoculated agar plates were incubated at 37° C., and the microbial growth was read off after about 20 hours. The MIC (μg/ml) indicates the lowest active compound concentration at which it was not possible to detect growth using the naked eye.

Staph. 48N = assay: MIC by serial dilution on Iso-Sensitest agar, Staph. 48N; settings: 37° C., about 20 hours, about 10^4 colony-forming particles
Method: as §1

Staph 25701 = assay: MIC by serial dilution on Iso-Sensitest agar, Staph 25701; settings: 37° C., about 20 hours, about 10^4 colony-forming particles
Method: as §1

Staph. 9TV = assay: MIC by serial dilution on Iso-Sensitest agar, Staph. 9TV; settings: 37° C., about 20 hours, about 10^4 colony-forming particles
Method: as §1

E. coli Neumann = assay: MIC by serial dilution on Iso-Sensitest agar, E. coli Neumann; settings: Escherichia coli, 37° C., about 20 hours, about 10^4 colony-forming particles
Method: as §1

Klebs. 57 USA = assay: MIC by serial dilution on Iso-Sensitest agar, Klebs. 57 USA; settings: 37° C., about 20 hours, about 10^4 colony-forming particles
Method: as §1

Psdm. Bonn = assay: MIC by serial dilution on Iso-Sensitest agar, Psdm. Bonn; settings: 37° C., about 20 hours, about 10^4 colony-forming particles
Method: as §1

[1] = test system: Mycobacterium smegmatis DSM 43061; assay: MIC by broth microdilution, Mycobacterium smegmatis DSM 43061; settings: Mycolicibacterium smegmatis, DSM43061
Method: (§2) For rapidly growing mycobacteria, the MIC determination was carried out following the method of broth microdilution described by Swenson [cf. J. M. Swenson, C. Thornberry, U. A. Silcox, Rapidly growing mycobacteria. Testing of susceptibility to 34 antimicrobial agents by broth microdilution. Antimicrobial Agents and Chemotherapy Vol. 22, 186-192 (1982)]. A deviation from this was the brain-heart extract medium treated with 0.1% by volume of Tween 80.
(§3) The mycobacterial strains used wvere ordered from DSM (German Collection of Microorganisms, Brunswick). They were incubated at 37° C. in a humid chamber.
(§4) The MICs were read off after 2-4 days when the preparation-free controls were cloudy as a result of growth.

[2] = test system: Mycobacterium smegmatis DSM 43465; assay: MIC by broth microdilution, Mycobacterium smegmatis DSM 43465; settings: Mycolicibacterium smegmatis, DSM43465
Method: as §2, §3, §4

[3] = DSM 43061, inoculum 2.20U+04 /ml, brain-heart extract medium with 0.1% Tween 80, 37° C., 2-4 days, read-out: MIC
[4] = DSM 43465, inoculum 3.10U+04 /ml, brain-heart extract medium with 0.1% Tween 80, 37° C., 2-4 days, read-out: MIC

SMILES | MIC (Staph. 133) | MIC (Staph. 48N) | MIC (Staph 25701) | MIC (Staph. 9TV) | MIC (E. coli Neumann) | MIC (Klebs. 57 USA) | MIC (Psdm. Bonn) | MIC [1, 3] | MIC [2, 4] | MIC [1] | MIC [2]
CC(=O)NC[C@H]1CN(c2ccc3c(ccc(=O)n3C(C)C)c2)C(=O)O1 [Example 5] | 16 µg/mL (≈ 46.6 µM) | 16 µg/mL (≈ 46.6 µM) | 16 µg/mL (≈ 46.6 µM) | 8 µg/mL (≈ 23.3 µM) | > 64 µg/mL | > 64 µg/mL | > 64 µg/mL | – | – | – | –
CC(=O)NC[C@H]1CN(c2ccc3c(ccc(=O)n3S(C)(=O)=O)c2)C(=O)O1 [Example 12] | 8 µg/mL (≈ 21.1 µM) | 8 µg/mL (≈ 21.1 µM) | 8 µg/mL (≈ 21.1 µM) | 4 µg/mL (≈ 10.5 µM) | > 64 µg/mL | > 64 µg/mL | > 64 µg/mL | – | – | – | –
NNC(=O)c1ccncc1 [Isoniazide, reference compound] | – | – | – | – | – | – | – | 4 µg/mL (≈ 29.2 µM) | 1 µg/mL (≈ 7.29 µM) | – | –
CC(=O)NC[C@H]1CN(c2ccc3c(ccc(=O)n3C)c2)C(=O)O1 [Example 3] | 2 µg/mL (≈ 6.34 µM) | 2 µg/mL (≈ 6.34 µM) | 2 µg/mL (≈ 6.34 µM) | 1 µg/mL (≈ 3.17 µM) | > 64 µg/mL | > 64 µg/mL | > 64 µg/mL | 2 µg/mL (≈ 6.34 µM) | 8 µg/mL (≈ 25.4 µM) | – | –
CCn1c(=O)ccc2cc(N3C[C@H](CNC(C)=O)OC3=O)ccc21 [Example 4] | 4 µg/mL (≈ 12.1 µM) | 8 µg/mL (≈ 24.3 µM) | 4 µg/mL (≈ 12.1 µM) | 2 µg/mL (≈ 6.07 µM) | > 64 µg/mL | > 64 µg/mL | – | 4 µg/mL (≈ 12.1 µM) | 8 µg/mL (≈ 24.3 µM) | – | –
CC(=O)NC[C@H]1CN(c2ccc3c(ccc(=O)n3CC#N)c2)C(=O)O1 [Example 6] | – | – | – | – | – | – | – | 8 µg/mL (≈ 23.5 µM) | 4 µg/mL (≈ 11.8 µM) | – | –
CC(=O)NC[C@H]1CN(c2ccc3c(ccc(=O)n3CCO)c2)C(=O)O1 [Example 7] | 8 µg/mL (≈ 23.2 µM) | 8 µg/mL (≈ 23.2 µM) | 8 µg/mL (≈ 23.2 µM) | 2 µg/mL (≈ 5.79 µM) | > 32 µg/mL | > 32 µg/mL | > 32 µg/mL | – | – | – | –
[H]/N=C(/N)N[C@H]1[C@H](O)[C@@H](O)[C@H](O[C@@H]2O[C@@H](C)[C@](O)(C=O)[C@H]2O[C@@H]2O[C@@H](CO)[C@H](O)[C@@H](O)[C@@H]2NC)[C@@H](N/C(N)=N\[H])[C@@H]1O [Streptomycin, reference compound] | – | – | – | – | – | – | – | – | – | 4 µg/mL (≈ 6.88 µM) | 4 µg/mL (≈ 6.88 µM)
